Experimental data published in article PMC10675071, “Identification of Crocetin as a Dual Agonist of GPR40 and GPR120 Responsible for the Antidiabetic Effect of Saffron” (Nutrients, 2023).
Values belong to the compound of their own block, whether it stands above or below them.

What was measured:
Type in all cases: cell-based
[1] = biological target: T1, GPR40 (Homo sapiens, UniProt O14842); assay: SRE-luciferase (Gq) reporter assay, CHO cells
T1 construct: gene FFAR1; plasmid of untold source and species, transiently cotransfected with SRE-Luc or CRE-Luc in CHO-K1 cells

[2] = biological target: T1, GPR40; assay: SRE-luciferase (Gq) reporter assay, CHO cells; settings: 24 h, 37 °C
[3] = biological target: T1, GPR40; assay: SRE-luciferase (Gq) reporter assay, CHO cells, dose-response curve; settings: agonist

T1 sequence (O14842 whole entry): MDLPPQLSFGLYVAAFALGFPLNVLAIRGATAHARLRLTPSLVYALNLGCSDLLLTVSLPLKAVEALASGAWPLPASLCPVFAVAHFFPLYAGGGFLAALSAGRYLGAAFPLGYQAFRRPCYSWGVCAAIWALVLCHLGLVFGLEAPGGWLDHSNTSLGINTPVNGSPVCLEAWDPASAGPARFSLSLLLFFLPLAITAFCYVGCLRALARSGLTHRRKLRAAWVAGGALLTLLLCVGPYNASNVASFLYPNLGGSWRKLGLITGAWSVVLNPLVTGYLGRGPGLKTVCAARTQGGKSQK

- EC50 [1]: 2910 ± 320 nM
SMILES: CC(/C=C/C=C(\C)C(=O)O)=C\C=C\C=C(C)\C=C\C=C(/C)C(=O)O [crocetin]

- Emax [2]: 6.00%
SMILES: CC(/C=C/C=C(\C)C(=O)O[C@@H]1O[C@H](CO[C@@H]2O[C@H](CO)[C@@H](O)[C@H](O)[C@H]2O)[C@@H](O)[C@H](O)[C@H]1O)=C\C=C\C=C(C)\C=C\C=C(/C)C(=O)O[C@@H]1O[C@H](CO[C@@H]2O[C@H](CO)[C@@H](O)[C@H](O)[C@H]2O)[C@@H](O)[C@H](O)[C@H]1O [crocin]

SMILES: CCCCC/C=C\C/C=C\CCCCCCCC(=O)O [linoleic acid]
- SRE-luciferase (Gq) reporter assay, CHO cells, dose-response curve [3]: increasing crocetin concentrations on dose−response curves of LA
